Read-outs that look alike come from different tables or passages of the source.
Legend:
[1] = target: T1, hCB2R (Homo sapiens, UniProt P34972); assay: biochemical; type: binding
[2] = target: T2, hCB1R (Homo sapiens, UniProt P21554); assay: biochemical; type: biochemical
T2 construct: host or cells: CHO

[3] = target: T2, hCB1R; assay: cell-based; type: cell-based
[4] = test system: AEA cellular uptake in U937 cells; assay: cells; type: cell-based, human; details: for AEA reuptake Efficacy (% inhibition) U937 cells: from dose-response; for IC50: read-out: AEA reuptake IC50 (95% CI) U937 cells; for AEA reuptake % inhibition, effect at 10 µM, U937 cells: 10 µM (values marked *)
[5] = test system: AEA cellular uptake in HMC-1 cells; assay: cells; type: cell-based, human; details: read-out: AEA reuptake IC50 (95% CI) HMC-1 cells; FAAH-deficient cells
[6] = target: T3, A1 (h) (Homo sapiens, UniProt P30542); assay: CEREP panel; type: binding; details: 10 µM
T3 construct: CEREP
T3 sequence (P30542 1-326): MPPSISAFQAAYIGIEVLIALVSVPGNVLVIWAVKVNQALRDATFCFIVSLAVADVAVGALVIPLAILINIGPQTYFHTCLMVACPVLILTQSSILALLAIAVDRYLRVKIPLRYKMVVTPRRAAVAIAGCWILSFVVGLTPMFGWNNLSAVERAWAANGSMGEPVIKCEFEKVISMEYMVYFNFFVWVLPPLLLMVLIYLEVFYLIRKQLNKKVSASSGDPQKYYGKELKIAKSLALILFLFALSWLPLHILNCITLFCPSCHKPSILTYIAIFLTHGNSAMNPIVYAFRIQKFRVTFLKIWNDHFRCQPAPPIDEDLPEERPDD

[7] = target: T4, alpha 1A (h) (Homo sapiens, UniProt P35348); assay: CEREP panel; type: binding; details: 10 µM
T4 construct: CEREP
T4 sequence (P35348 1-466): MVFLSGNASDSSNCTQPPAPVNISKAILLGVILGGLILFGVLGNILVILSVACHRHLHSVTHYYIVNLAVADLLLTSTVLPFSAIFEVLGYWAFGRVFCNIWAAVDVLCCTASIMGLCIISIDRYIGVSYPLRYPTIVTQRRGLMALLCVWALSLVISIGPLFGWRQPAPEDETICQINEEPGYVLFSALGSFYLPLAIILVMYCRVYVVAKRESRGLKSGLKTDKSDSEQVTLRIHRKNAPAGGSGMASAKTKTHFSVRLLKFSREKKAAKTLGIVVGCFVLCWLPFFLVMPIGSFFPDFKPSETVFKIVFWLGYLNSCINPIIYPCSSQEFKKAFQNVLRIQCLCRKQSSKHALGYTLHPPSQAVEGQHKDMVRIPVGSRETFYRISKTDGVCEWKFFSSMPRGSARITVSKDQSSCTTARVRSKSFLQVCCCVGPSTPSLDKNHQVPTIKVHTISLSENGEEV

[8] = test system: BZD (central); type: binding; details: 10 µM
[9] = target: T5, N muscle-type (h) (Homo sapiens, UniProt P02708+P07510+P11230+Q07001); assay: CEREP panel; type: binding; details: for % inhibition N muscle-type (h): 10 µM
T5 construct: CEREP (contract assay)

[10] = 1 μM
[11] = target: T1, hCB2R; assay: biochemical; type: biochemical; design: expressed in transfected cells; host or cells: Flp-In-293 (Invitrogen #R750-07), pcDNA5/FRT
[12] = target: T1, hCB2R; assay: cell-based; type: cell-based; design: expressed in transfected cells; host or cells: Flp-In-293 (Invitrogen #R750-07), pcDNA5/FRT
[13] = target: T1, hCB2R; design: expressed in transfected cells; host or cells: Flp-In-293 (Invitrogen #R750-07), pcDNA5/FRT
[14] = target: T6, hGPR55 (Homo sapiens, UniProt Q9Y2T6); assay: cell-based; details: β-arrestin recruitment
T6 construct: host or cells: CHO-K1 (PathHunter hGPR55_bgal)
T6 sequence (Q9Y2T6 whole entry): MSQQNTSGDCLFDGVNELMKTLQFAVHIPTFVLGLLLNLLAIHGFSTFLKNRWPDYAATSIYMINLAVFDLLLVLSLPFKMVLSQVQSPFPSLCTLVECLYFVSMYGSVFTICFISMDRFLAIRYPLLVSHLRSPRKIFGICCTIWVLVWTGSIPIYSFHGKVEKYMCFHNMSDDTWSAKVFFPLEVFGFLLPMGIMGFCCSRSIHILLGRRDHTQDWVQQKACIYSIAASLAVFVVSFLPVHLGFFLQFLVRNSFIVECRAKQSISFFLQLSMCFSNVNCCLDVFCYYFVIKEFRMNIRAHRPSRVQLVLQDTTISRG

T1 sequence (P34972 whole entry): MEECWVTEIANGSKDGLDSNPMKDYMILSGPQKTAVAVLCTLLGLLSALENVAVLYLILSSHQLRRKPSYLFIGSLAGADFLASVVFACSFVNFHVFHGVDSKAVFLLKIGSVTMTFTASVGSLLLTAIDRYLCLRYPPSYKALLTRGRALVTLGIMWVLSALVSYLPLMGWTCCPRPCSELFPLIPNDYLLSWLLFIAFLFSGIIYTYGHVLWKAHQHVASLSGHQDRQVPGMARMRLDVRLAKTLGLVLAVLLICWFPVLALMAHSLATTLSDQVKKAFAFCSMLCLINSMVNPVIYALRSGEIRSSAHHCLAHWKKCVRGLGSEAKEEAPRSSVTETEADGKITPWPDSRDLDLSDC
T2 sequence (P21554 whole entry): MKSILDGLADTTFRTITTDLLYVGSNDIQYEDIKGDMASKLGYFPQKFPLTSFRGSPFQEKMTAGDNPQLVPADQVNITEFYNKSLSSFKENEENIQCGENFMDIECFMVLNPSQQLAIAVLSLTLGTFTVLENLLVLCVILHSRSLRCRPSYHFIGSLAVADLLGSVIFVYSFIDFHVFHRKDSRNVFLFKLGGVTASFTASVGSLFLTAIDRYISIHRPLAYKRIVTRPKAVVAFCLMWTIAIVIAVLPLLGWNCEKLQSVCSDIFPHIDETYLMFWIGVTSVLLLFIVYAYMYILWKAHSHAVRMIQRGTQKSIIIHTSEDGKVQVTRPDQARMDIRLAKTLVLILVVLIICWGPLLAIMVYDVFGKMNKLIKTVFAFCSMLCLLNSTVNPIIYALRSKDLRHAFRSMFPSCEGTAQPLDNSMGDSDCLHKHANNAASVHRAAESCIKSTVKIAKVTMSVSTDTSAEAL
T5 sequence (P02708 21-457): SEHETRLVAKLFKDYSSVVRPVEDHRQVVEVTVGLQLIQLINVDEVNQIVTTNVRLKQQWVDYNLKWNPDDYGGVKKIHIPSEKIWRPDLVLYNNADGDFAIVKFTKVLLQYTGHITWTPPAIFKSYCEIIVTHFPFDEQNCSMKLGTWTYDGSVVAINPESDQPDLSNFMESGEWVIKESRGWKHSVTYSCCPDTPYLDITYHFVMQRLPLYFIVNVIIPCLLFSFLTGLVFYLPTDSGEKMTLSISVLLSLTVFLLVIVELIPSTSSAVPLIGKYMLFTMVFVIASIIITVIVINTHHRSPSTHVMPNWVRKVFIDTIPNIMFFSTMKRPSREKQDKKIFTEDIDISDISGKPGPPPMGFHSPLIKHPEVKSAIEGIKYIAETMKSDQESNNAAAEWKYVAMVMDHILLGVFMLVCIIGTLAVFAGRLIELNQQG
T5 sequence (P11230 24-501): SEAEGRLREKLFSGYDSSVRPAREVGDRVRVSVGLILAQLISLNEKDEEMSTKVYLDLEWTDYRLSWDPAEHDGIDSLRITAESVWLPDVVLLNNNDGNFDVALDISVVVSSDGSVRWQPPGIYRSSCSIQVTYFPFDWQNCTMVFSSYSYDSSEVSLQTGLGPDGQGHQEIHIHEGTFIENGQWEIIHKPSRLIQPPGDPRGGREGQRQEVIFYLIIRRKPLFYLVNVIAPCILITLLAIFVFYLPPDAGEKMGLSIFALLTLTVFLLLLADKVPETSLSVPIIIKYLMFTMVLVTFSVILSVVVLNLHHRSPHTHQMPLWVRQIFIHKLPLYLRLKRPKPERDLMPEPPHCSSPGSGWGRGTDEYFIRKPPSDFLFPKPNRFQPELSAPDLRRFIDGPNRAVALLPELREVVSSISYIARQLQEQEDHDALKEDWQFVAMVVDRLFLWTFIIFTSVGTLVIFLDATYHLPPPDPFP
T5 sequence (Q07001 22-517): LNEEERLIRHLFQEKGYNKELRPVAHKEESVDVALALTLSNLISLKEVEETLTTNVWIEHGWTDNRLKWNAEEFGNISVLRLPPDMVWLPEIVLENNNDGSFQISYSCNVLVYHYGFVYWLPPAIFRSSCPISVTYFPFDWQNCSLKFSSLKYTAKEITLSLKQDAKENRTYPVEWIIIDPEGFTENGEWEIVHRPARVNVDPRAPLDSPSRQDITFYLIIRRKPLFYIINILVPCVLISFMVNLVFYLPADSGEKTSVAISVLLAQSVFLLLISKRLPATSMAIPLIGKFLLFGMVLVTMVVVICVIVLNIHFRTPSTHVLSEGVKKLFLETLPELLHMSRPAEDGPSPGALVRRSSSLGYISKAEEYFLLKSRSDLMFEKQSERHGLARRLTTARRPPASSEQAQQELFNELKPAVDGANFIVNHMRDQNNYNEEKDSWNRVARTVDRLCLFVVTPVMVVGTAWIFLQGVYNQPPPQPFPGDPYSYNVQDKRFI
T5 sequence (P07510 23-517): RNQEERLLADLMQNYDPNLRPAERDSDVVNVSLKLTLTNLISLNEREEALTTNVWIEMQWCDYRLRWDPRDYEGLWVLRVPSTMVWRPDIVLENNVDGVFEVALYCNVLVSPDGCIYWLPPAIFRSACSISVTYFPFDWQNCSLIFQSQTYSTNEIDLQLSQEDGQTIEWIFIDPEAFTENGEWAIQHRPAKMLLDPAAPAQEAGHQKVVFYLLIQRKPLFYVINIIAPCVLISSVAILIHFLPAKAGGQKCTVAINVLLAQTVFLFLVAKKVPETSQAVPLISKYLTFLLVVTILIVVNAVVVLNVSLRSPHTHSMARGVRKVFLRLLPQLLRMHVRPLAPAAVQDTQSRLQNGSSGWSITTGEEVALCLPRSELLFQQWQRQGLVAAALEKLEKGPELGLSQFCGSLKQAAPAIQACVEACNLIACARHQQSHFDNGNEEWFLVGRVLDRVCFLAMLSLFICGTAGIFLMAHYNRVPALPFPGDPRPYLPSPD

CN1CCCC[C@H]1Cn1cc(C(=O)c2cc([N+](=O)[O-])ccc2I)c2ccccc21 [(S)-AM1241]
pKi ± SEM hCB2R ([1]; CHO membranes, Leiden, HU210 and SR144528 from Roche): 7.02 ± 0.15 | pEC50 ± SEM GTPγS hCB1R [2]: < 5 | Emax ± SEM pERK hCB1R [3]: 17 ± 3 | pEC50 ± SEM pERK hCB1R [3]: < 4 | AEA reuptake Efficacy (% inhibition) U937 cells [4]: 97% | IC50 [4]: 3.7 µM | IC50 [5]: > 5 µM | % inhibition A1 (h) [6]: 14% | % inhibition alpha 1A (h) [7]: 75% | % inhibition BZD (central) [8]: -1% | % inhibition N muscle-type (h) [9]: 38% | CL hepatocytes human [10]: 37 µL/min/mio cells | Emax ± SEM GTPγS hCB2R [11]: 47 ± 5 | pEC50 ± SEM GIRK hCB2R [12]: 5.6 ± 0.14 | Emax ± SEM GIRK hCB2R ([12]; normalized to CP55940): 68 ± 13% | GIRK-GTPγS bias factor (BF) ([13]; hCB2R): 0.16 | GIRK-GTPγS ΔΔlogR ([13]; hCB2R): -0.79 | LogR GIRK ([13]; hCB2R): 5.70 | LogR GTPγS ([13]; hCB2R): 6.9 | LogR pERK ([13]; hCB2R): 7.54 | LogR β-AR ([13]; hCB2R): 5.97 | pERK-GIRK bias factor (BF) ([13]; hCB2R): 4.72 | pERK-GIRK ΔΔlogR ([13]; hCB2R): 0.68 ± 0.37 | pERK-GTPγS bias factor (BF) ([13]; hCB2R): 0.77 | pERK-GTPγS ΔΔlogR ([13]; hCB2R): -0.11 | β-AR-GIRK bias factor (BF) ([13]; hCB2R): 0.43 | β-AR-GIRK ΔΔlogR ([13]; hCB2R): -0.37 ± 0.33 | β-AR-GTPγS bias factor (BF) ([13]; hCB2R): 0.07 | β-AR-GTPγS ΔΔlogR ([13]; hCB2R): -1.16 ± 0.57 | β-AR-pERK bias factor (BF) ([13]; hCB2R): 0.09 | β-AR-pERK ΔΔlogR ([13]; hCB2R): -1.05 ± 0.44 | ΔLogR GIRK ([13]; hCB2R, reference CP55940): -2.17 | ΔLogR GTPγS ([13]; hCB2R, reference CP55940): -1.38 | ΔLogR pERK ([13]; hCB2R, reference CP55940): -1.49 | ΔLogR β-AR ([13]; hCB2R, reference CP55940): -2.54 | RE GIRK ([13]; hCB2R, relative effectiveness): 0.01 | RE GTPγS ([13]; hCB2R, relative effectiveness): 0.04 | RE pERK ([13]; hCB2R, relative effectiveness): 0.03 | RE β-AR ([13]; hCB2R, relative effectiveness): 0.003

COc1ccc(C(=O)c2c(C)n(CCN3CCOCC3)c3cc(I)ccc23)cc1 [AM630]
pKi ± SEM hCB2R [1]: 7.39 ± 0.02 | GPR55 pEC50 (± SEM) [14]: < 5 | AEA reuptake % inhibition, effect at 10 µM, U937 cells [4]: 23% | IC50 [4]: > 10 µM | IC50 [5]: > 10 µM | % inhibition A1 (h) [6]: 28% | % inhibition alpha 1A (h) [7]: 47% | % inhibition BZD (central) [8]: -12% | % inhibition N muscle-type (h) [9]: 5% | CL hepatocytes human [10]: 16 µL/min/mio cells | Emax ± SEM GTPγS hCB2R [11]: -22 ± 2 | pEC50 ± SEM GTPγS hCB2R [11]: 6.75 ± 0.20 | pEC50 ± SEM GIRK hCB2R [12]: 5.82 ± 0.08

CCCCCCC(C)(C)c1ccc([C@@H]2C[C@H](O)CC[C@H]2CCCO)c(O)c1 [CP55940]
Emax ([2]; read-out: Emax ± SEM GTPγS hCB1R): 92 ± 5% | EC50 ([14]; read-out: GPR55 pEC50 (± SEM) (converted)): > 10 µM | inhibition at 10 µM ([6]; read-out: % inhibition A1 (h)): 21% | inhibition at 10 µM ([7]; read-out: % inhibition alpha 1A (h)): 57% | % inhibition BZD (central) [8]: -9% | inhibition at 10 µM [9]: -4% | Emax ([11]; read-out: Emax ± SEM GTPγS hCB2R): 95 ± 4% | GIRK-GTPγS bias factor (BF) [13]: 1.00 | GIRK-GTPγS ΔΔlogR [13]: 0 ± 0.34 | GIRK-cAMP bias factor (BF) [13]: 1.00 | GIRK-cAMP ΔΔlogR [13]: 0 ± 0.12 | GTPγS-cAMP bias factor (BF) [13]: 1.00 | GTPγS-cAMP ΔΔlogR [13]: 0 ± 0.34 | LogR GIRK [13]: 7.863 | RE GIRK [13]: 1.00 | RE GTPγS [13]: 1.00 | RE cAMP [13]: 1.00 | RE pERK [13]: 1.00 | RE β-AR [13]: 1.00 | pERK-GIRK bias factor (BF) [13]: 1.00 | pERK-GIRK ΔΔlogR [13]: 0 ± 0.25 | pERK-GTPγS bias factor (BF) [13]: 1.00 | pERK-GTPγS ΔΔlogR [13]: 0 ± 0.41 | pERK-cAMP bias factor (BF) [13]: 1.00 | pERK-cAMP ΔΔlogR [13]: 0 ± 0.26 | ΔLogR GIRK [13]: 0 ± 0.07 | ΔLogR GTPγS [13]: 0 ± 0.33 | ΔLogR cAMP [13]: 0 ± 0.09 | ΔLogR pERK [13]: 0 ± 0.24 | ΔLogR β-AR [13]: 0 ± 0.07 | β-AR-GIRK bias factor (BF) [13]: 1.00 | β-AR-GIRK ΔΔlogR [13]: 0 ± 0.1 | β-AR-GTPγS bias factor (BF) [13]: 1.00 | β-AR-GTPγS ΔΔlogR [13]: 0 ± 0.34 | β-AR-cAMP bias factor (BF) [13]: 1.00 | β-AR-cAMP ΔΔlogR [13]: 0 ± 0.12 | β-AR-pERK bias factor (BF) [13]: 1.00 | β-AR-pERK ΔΔlogR [13]: 0 ± 0.25

CCCn1c(C)c(C(=O)c2cccc3ccccc23)c2ccccc21 [JWH015]
GPR55 pEC50 (± SEM) [14]: < 5 | % inhibition A1 (h) [6]: 10% | % inhibition alpha 1A (h) [7]: 16% | % inhibition BZD (central) [8]: -57% | % inhibition N muscle-type (h) [9]: -12% | CL hepatocytes human [10]: 16 µL/min/mio cells

Cc1c(C(=O)c2cccc3ccccc23)c2cccc3c2n1[C@H](CN1CCOCC1)CO3 [WIN55212-2]
GPR55 pEC50 (± SEM) [14]: < 5 | AEA reuptake Efficacy (% inhibition) U937 cells [4]: 52% | IC50 [4]: 4.65 µM | IC50 [5]: > 5 µM | % inhibition A1 (h) [6]: 10% | % inhibition alpha 1A (h) [7]: 15% | % inhibition BZD (central) [8]: 4% | % inhibition N muscle-type (h) [9]: 7% | CL hepatocytes human [10]: 42 µL/min/mio cells

SR144528
Emax ± SEM pERK hCB1R [3]: -21 ± 2 | AEA reuptake % inhibition, effect at 10 µM, U937 cells [4]: 30% | IC50 [4]: > 10 µM | IC50 [5]: > 10 µM | % inhibition A1 (h) [6]: 4% | % inhibition alpha 1A (h) [7]: -1% | % inhibition BZD (central) [8]: -3% | % inhibition N muscle-type (h) [9]: -3% | Emax ± SEM GTPγS hCB2R ([11]; normalized to 10 µM CP55940, negative = inverse agonism): -29 ± 2%
